This note sets out measurements from ChEMBL document CHEMBL3044845, “Synthesis and biological activity studies of furan derivatives” (2010).

Assay [1] relates to Bacillus subtilis. The assay can be described thus: Antibacterial activity against Bacillus subtilis RSKK 244 at 5 mg/ml after 24 hr by disk diffusion method. The note with it: for zone of inhibition at 5000 µg/mL: RSKK 244, 24 h, read-out: DIZ. Format: functional. (In general: A growth-free zone around the sample is the usual read-out of agar diffusion tests.)
Assay [2] deals with Staphylococcus aureus. The assay can be described thus: Antibacterial activity against Staphylococcus aureus ATCC 25923 at 5 mg/ml after 24 hr by disk diffusion method. Format: functional. The settings on record: ATCC 25923, 24 h, read-out: DIZ.
Assay [3] deals with Micrococcus luteus. The assay can be described thus: Antibacterial activity against Micrococcus luteus NRRLB 4375 at 5 mg/ml after 24 hr by disk diffusion method. Format: functional. The note with it: for zone of inhibition at 5000 µg/mL: NRRLB 4375, 24 h, read-out: DIZ.
In assay [4] the test system is Salmonella enteritidis. Nature of the assay: Antibacterial activity against Salmonella enterica subsp. enterica serovar Enteritidis ATCC 1376 at 5 mg/ml after 24 hr by disk diffusion method. The format is functional. The note with it: for zone of inhibition at 5000 µg/mL: ATCC 1376, 24 h, read-out: DIZ.
Assay [5] relates to Pseudomonas aeruginosa. Nature of the assay: Antibacterial activity against Pseudomonas aeruginosa ATCC […] at 5 mg/ml after 24 hr by disk diffusion method. The settings on record: for zone of inhibition at 5000 µg/mL: read-out: DIZ. Format: functional.
The test system of assay [6] is Priestia megaterium. Nature of the assay: Antibacterial activity against Bacillus megaterium ATCC 6633 at 5 mg/ml after 24 hr by disk diffusion method. Format: functional.
Assay [7] concerns Listeria monocytogenes. The assay can be described thus: Antibacterial activity against Listeria monocytogenes ATCC 7644 at 5 mg/ml after 24 hr by disc diffusion method. Format: functional. The settings on record: for zone of inhibition at 5000 µg/mL: ATCC 7644, 24 h, read-out: DIZ.
Assay [8] has as its system Escherichia coli. Nature of the assay: Antibacterial activity against Escherichia coli ATCC […] at 5 mg/ml after 24 hr by disk diffusion method. The format is functional. The note with it: read-out: DIZ.
For assay [9], the system named is Escherichia coli. Nature of the assay: Antibacterial activity against Escherichia coli ATCC […] after 24 hr by disk diffusion method. Format: functional.
Assay [10] relates to Micrococcus luteus. Nature of the assay: Antibacterial activity against Micrococcus luteus NRRLB 4375 after 24 hr by disk diffusion method. The format is functional.
The subject of assay [11] is Listeria monocytogenes. The assay can be described thus: Antibacterial activity against Listeria monocytogenes ATCC 7644 after 24 hr by disk diffusion method. Format: functional, organism-based.
Assay [12] has as its system Pseudomonas aeruginosa. The assay can be described thus: Antibacterial activity against Pseudomonas aeruginosa ATCC […] after 24 hr by disk diffusion method. The format is functional, organism-based.
Assay [13] deals with Salmonella enteritidis. The assay can be described thus: Antibacterial activity against Salmonella enterica subsp. enterica serovar Enteritidis ATCC 1376 after 24 hr by disk diffusion method. The format is functional, organism-based.
In assay [14] the test system is Priestia megaterium. Nature of the assay: Antibacterial activity against Bacillus megaterium ATCC 6633 after 24 hr by disk diffusion method. Format: functional.
The subject of assay [15] is Bacillus subtilis. Nature of the assay: Antibacterial activity against Bacillus subtilis RSKK 244 after 24 hr by disk diffusion method. The format is functional.
For assay [16], the system named is Staphylococcus aureus. Nature of the assay: Antibacterial activity against Staphylococcus aureus ATCC 25923 after 24 hr by disk diffusion method. Format: functional.

Activity calls are given as the source filed them. The rule behind the calls is not given here.

With `CCC1C(C#N)=C(c2cccs2)OC1(c1ccccc1)c1ccccc1` (stereo not given), the “diameter of the inhibition zone (DIZ)” value in [1], in [3], in [4], in assay [5], in [6] and in assay [7] was “inactive” each time. Also, the values for the zone of inhibition at 5000 µg/mL in [2] and in assay [8] were 8 mm and 10 mm, respectively.
On to `CC1(C)S[C@@H]2[C@H](NC(=O)Cc3ccccc3)C(=O)N2[C@H]1C(=O)O` [PENICILLIN G], for which the entries for the “diameter of the inhibition zone (DIZ)” value in [9] and in [10] were 19 mm and 31 mm, respectively.
As to GENTAMICIN, the inhibition zone (IZ) in [11] is 10 mm; in assay [12], 16 mm; in assay [13], 9 mm.
Consider `CCC1C(C#N)=C(c2ccco2)OC1(c1ccccc1)c1ccccc1` (stereo not given), for which the zone of inhibition at 5000 µg/mL in [1] came out at 11 mm; in assay [2], 10 mm; in assay [3], 14 mm; in assay [4], 10 mm; in assay [5], 12 mm; in [6] (ATCC 6633, 24 h, read-out: DIZ) it was 10 mm. For the same compound, the zone of inhibition at 5000 µg/mL in [7] worked out at 16 mm; in assay [8], 13 mm.
With `CCCC1(c2ccccc2)OC(c2cc3ccccc3o2)=C(C#N)C1c1ccccc1` (stereo not given), the zone of inhibition at 5000 µg/mL came out at 11 mm in [1]; 12 mm in [2]; 13 mm in [3]; 14 mm in assay [4]; 10 mm in assay [5]; 13 mm in assay [7]. For the same compound, in assay [8], the zone of inhibition at 5000 µg/mL was found to be 10 mm. In addition, the “diameter of the inhibition zone (DIZ)” value in [6] was “inactive”.
On to `CCCC1(c2ccccc2)OC(c2ccccc2)=C(C#N)C1c1ccccc1` (stereo not given), for which the zone of inhibition at 5000 µg/mL is 10 mm in assay [1]; 14 mm in [2]; 13 mm in assay [3]; 16 mm in assay [4]; 10 mm in assay [5]; 18 mm in [7]. In [8], the zone of inhibition at 5000 µg/mL is 12 mm. Also, the “diameter of the inhibition zone (DIZ)” value in [6] is “inactive”.
For `CCC1C(C#N)=C(c2ccccc2)OC1(c1ccccc1)c1ccccc1` (stereo not given), the zone of inhibition at 5000 µg/mL in [1] worked out at 11 mm; in assay [2], 13 mm; in assay [3], 13 mm; in [4] it was 13 mm; in assay [5], 12 mm; in assay [7] it was 11 mm. The zone of inhibition at 5000 µg/mL in assay [8] worked out at 11 mm. Moreover, the “diameter of the inhibition zone (DIZ)” value in assay [6] is “inactive”.
Consider `CC1(C)S[C@@H]2[C@H](NC(=O)[C@H](N)c3ccccc3)C(=O)N2[C@H]1C(=O)O` [AMPICILLIN], for which the “diameter of the inhibition zone (DIZ)” value in [14] worked out at 10 mm; in [10] it was 28 mm; in assay [15] it was 15 mm; in [16] it was 9 mm.
As to `CN(C)[C@@H]1C(O)=C(C(N)=O)C(=O)[C@@]2(O)C(O)=C3C(=O)c4c(O)cccc4[C@@](C)(O)[C@H]3C[C@@H]12` [TETRACYCLINE], the “diameter of the inhibition zone (DIZ)” value in assay [10] is recorded as 9 mm.
